Patent US9884832B2 (priority 2011, dated 2018)
Read-outs that look alike come from different tables or passages of the source.

Experiments:
[1] = target: AM2 V27A (valine→alanine mutation at residue 27 in the M2 protein) (Influenza A virus, UniProt P0DOF5, V27A); format: cell-based, influenza virus A/Udorn/72
[2] = target: AM2 S31N (serine→asparagine mutation at residue 31 in the M2 protein) (Influenza A virus, UniProt P0DOF5, S31N); format: cell-based, influenza virus A/Udorn/72

Structure (SMILES)	V27A OOcyte Inhibition at 100 uM (%) ([1]; pH 5.5)	S31N OOcyte Inhibition at 100 uM (%) ([2]; pH 5.5)	V27A OOcyte Inhibition at 100 uM (%) [1]	S31N OOcyte Inhibition at 100 uM (%) [2]
CSc1ccc(CNC2C3CC4CC(C3)CC2C4)cc1 (stereo not shown) [Example 103, Adamantan-2-yl-(4-methylsulfanyl-benzyl)-amine]	A (key: (A)=31-95%; (B)=0-30%)	A (key: (A)=31-95%; (B)=0-30%)	–	–
Cc1c(CNC23CC4CC(CC(C4)C2)C3)sc2ccccc12 [Example 177a, Adamantan-1-yl-(3-methyl-benzo[b]thiophen-2-ylmethyl)-amine]	–	–	B (key: (A)=31-95%; (B)=0-30%)	B (key: (A)=31-95%; (B)=0-30%)
Oc1cc(OCc2ccccc2)ccc1CNC12CC3CC(CC(C3)C1)C2 [Example 57, 2-(Adamantan-1-ylaminomethyl)-5-benzyloxy-phenol]	B (key: (A)=31-95%; (B)=0-30%)	A (key: (A)=31-95%; (B)=0-30%)	–	–
c1cc2[nH]c(CNC34CC5CC(CC(C5)C3)C4)cc2s1 [Example 80, Adamantan-1-yl-(4H-thieno[3,2-b]pyrrol-5-ylmethyl)-amine]	B (key: (A)=31-95%; (B)=0-30%)	A (key: (A)=31-95%; (B)=0-30%)	–	–
CCOc1ccc(CNC23CC4CC(CC(C4)C2)C3)cc1 [Example 20, Adamantan-1-yl-(4-ethoxy-benzyl)-amine]	B (key: (A)=31-95%; (B)=0-30%)	A (key: (A)=31-95%; (B)=0-30%)	–	–
Cc1nc(CNC23CC4CC(CC(C4)C2)C3)c[nH]1 [Example 99a, N-((2-methyl-1H-imidazol-4-yl)methyl)adamantan-1-amine]	–	–	B (key: (A)=31-95%; (B)=0-30%)	B (key: (A)=31-95%; (B)=0-30%)
Oc1c(F)cc(CNC23CC4CC(CC(C4)C2)C3)cc1Cl [Example 68, 4-(Adamantan-1-ylaminomethyl)-2-chloro-6-fluoro-phenol]	B (key: (A)=31-95%; (B)=0-30%)	B (key: (A)=31-95%; (B)=0-30%)	–	–
O=c1[nH]cc(CNC23CC4CC(CC(C4)C2)C3)c(=O)[nH]1 [Example 169a, 5-((adamantan-1-ylamino)methyl)pyrimidine-2,4(1H,3H)-dione]	–	–	B (key: (A)=31-95%; (B)=0-30%)	B (key: (A)=31-95%; (B)=0-30%)
Brc1ccc(-c2ccc(CNC34CC5CC(CC(C5)C3)C4)s2)s1 [Example 159a, N-((5′-bromo-[2,2′-bithiophen]-5-yl)methyl)adamantan-1-amine]	–	–	B (key: (A)=31-95%; (B)=0-30%)	A (key: (A)=31-95%; (B)=0-30%)
Cc1csc2sc(CNC34CC5CC(CC(C5)C3)C4)c(C)c12 [Example 176a]	–	–	B (key: (A)=31-95%; (B)=0-30%)	B (key: (A)=31-95%; (B)=0-30%)
NC(=O)COc1ccc(CNC23CC4CC(CC(C4)C2)C3)cc1 [Example 39, 2-(4-((Adamantan-1-ylamino)methyl)phenoxy)acetamide]	B (key: (A)=31-95%; (B)=0-30%)	B (key: (A)=31-95%; (B)=0-30%)	–	–
Oc1ccc(CNC2C3CC4CC(C3)CC2C4)cc1O (stereo not shown) [Example 101, 4-(Adamantan-2-ylaminomethyl)-benzene-1,2-diol]	B (key: (A)=31-95%; (B)=0-30%)	B (key: (A)=31-95%; (B)=0-30%)	–	–
Cc1noc(C)c1-c1ccc(CNC23CC4CC(CC(C4)C2)C3)cc1 [Example 33a, N-(4-(3,5-Dimethylisoxazol-4-yl)benzyl)adamantan-1-amine]	–	–	B (key: (A)=31-95%; (B)=0-30%)	B (key: (A)=31-95%; (B)=0-30%)
FC(F)(F)Sc1ccc(CNC23CC4CC(CC(C4)C2)C3)cc1 [Example 26, Adamantan-1-yl-(4-trifluoromethylsulfanyl-benzyl)-amine]	B (key: (A)=31-95%; (B)=0-30%)	A (key: (A)=31-95%; (B)=0-30%)	–	–
COc1cc(O)cc(OC)c1CNC12CC3CC(CC(C3)C1)C2 [Example 66, 4-(Adamantan-1-ylaminomethyl)-3,5-dimethoxy-phenol]	B (key: (A)=31-95%; (B)=0-30%)	B (key: (A)=31-95%; (B)=0-30%)	–	–
c1cc(-c2ccc(CNC34CC5CC(CC(C5)C3)C4)o2)[nH]n1 [Example 162a, N-((5-(1H-pyrazol-5-yl)furan-2-yl)methyl)adamantan-1-amine]	–	–	B (key: (A)=31-95%; (B)=0-30%)	B (key: (A)=31-95%; (B)=0-30%)
OC1CCC(CNC23CC4CC(CC(C4)C2)C3)CC1 (stereo not shown) [Example 170a, 4-(Adamantan-1-ylaminomethyl)-cyclohexanol]	–	–	B (key: (A)=31-95%; (B)=0-30%)	B (key: (A)=31-95%; (B)=0-30%)
c1coc(-c2cc(CNC34CC5CC(CC(C5)C3)C4)no2)c1 [Example 153a, N-((5-(furan-2-yl)isoxazol-3-yl)methyl)adamantan-1-amine]	–	–	B (key: (A)=31-95%; (B)=0-30%)	A (key: (A)=31-95%; (B)=0-30%)

Structure (SMILES)	V27A OOcyte Inhibition at 100 uM (%) ([1]; pH 5.5)	S31N OOcyte Inhibition at 100 uM (%) ([2]; pH 5.5)	V27A OOcyte Inhibition at 100 uM (%) [1]	S31N OOcyte Inhibition at 100 uM (%) [2]
c1ccc(-c2nnc(CNC34CC5CC(CC(C5)C3)C4)o2)cc1 [Example 115a, N-((5-phenyl-1,3,4-oxadiazol-2-yl)methyl)adamantan-1-amine]	–	–	B (key: (A)=31-95%; (B)=0-30%)	A (key: (A)=31-95%; (B)=0-30%)
c1cnn(-c2ccc(CNC34CC5CC(CC(C5)C3)C4)cc2)c1 [Example 35, Adamantan-1-yl-(4-pyrazol-1-yl-benzyl)-amine]	B (key: (A)=31-95%; (B)=0-30%)	B (key: (A)=31-95%; (B)=0-30%)	–	–
Oc1ccc(CNC2C3CC4CC(C3)CC2C4)c(O)c1 (stereo not shown) [Example 100, 4-(Adamantan-2-ylaminomethyl)-benzene-1,3-diol]	A (key: (A)=31-95%; (B)=0-30%)	B (key: (A)=31-95%; (B)=0-30%)	–	–
c1coc(-c2ccc(CNC34CC5CC(CC(C5)C3)C4)s2)c1 [Example 136a, N-((5-(Furan-2-yl)thiophen-2-yl)methyl)adamantan-1-amine]	–	–	B (key: (A)=31-95%; (B)=0-30%)	A (key: (A)=31-95%; (B)=0-30%)
Oc1cc(O)c(CNC23CC4CC(CC(C4)C2)C3)c(O)c1 [Example 70, 2-(Adamantan-1-ylaminomethyl)-benzene-1,3,5-triol]	B (key: (A)=31-95%; (B)=0-30%)	B (key: (A)=31-95%; (B)=0-30%)	–	–
COc1cc(Cl)sc1CNC12CC3CC(CC(C3)C1)C2 [Example 80a]	–	–	B (key: (A)=31-95%; (B)=0-30%)	B (key: (A)=31-95%; (B)=0-30%)
COc1ccsc1CNC12CC3CC(CC(C3)C1)C2 [Example 74a, Adamantan-1-yl-(3-methoxy-thiophen-2-ylmethyl)-amine]	–	–	B (key: (A)=31-95%; (B)=0-30%)	A (key: (A)=31-95%; (B)=0-30%)
CSc1ccc(-c2ccc(CNC34CC5CC(CC(C5)C3)C4)s2)cc1 [Example 112a, N-((5-(4-(methylthio)phenyl)thiophen-2-yl)methyl)adamantan-1-amine]	–	–	B (key: (A)=31-95%; (B)=0-30%)	A (key: (A)=31-95%; (B)=0-30%)
Nc1ccc(CNC23CC4CC(CC(C4)C2)C3)cc1 [Example 11, Adamantan-1-yl-(4-amino-benzyl)-amine]	B (key: (A)=31-95%; (B)=0-30%)	B (key: (A)=31-95%; (B)=0-30%)	–	–
COc1ccc(CNC23CC4CC(CC(C4)C2)C3)s1 [Example 75a, N-((5-methoxythiophen-2-yl)methyl)adamantan-1-amine]	–	–	B (key: (A)=31-95%; (B)=0-30%)	A (key: (A)=31-95%; (B)=0-30%)
Cc1nn2cc(CNC3C4CC5CC(C4)CC3C5)nc2s1 (stereo not shown) [Example 106, Adamantan-2-yl-(2-methyl-imidazo[2,1-b][1,3,4]thiadiazol-6-ylmethyl)-amine]	A (key: (A)=31-95%; (B)=0-30%)	B (key: (A)=31-95%; (B)=0-30%)	–	–
c1cc(C2CCCCC2)ccc1CNC12CC3CC(CC(C3)C1)C2 [Example 10a, Adamantan-1-yl-(4-cyclohexyl-benzyl)-amine]	–	–	B (key: (A)=31-95%; (B)=0-30%)	A (key: (A)=31-95%; (B)=0-30%)
Brc1ccc(CNC23CC4CC(CC(C4)C2)C3)s1 [Example 81a, N-((5-Bromothiophen-2-yl)methyl)adamantan-1-amine]	–	–	B (key: (A)=31-95%; (B)=0-30%)	A (key: (A)=31-95%; (B)=0-30%)
COc1ccc2cc(CNC34CC5CC(CC(C5)C3)C4)[nH]c2c1 [Example 186a, N-((6-methoxy-1H-indol-2-yl)methyl)adamantan-1-amine]	–	–	B (key: (A)=31-95%; (B)=0-30%)	A (key: (A)=31-95%; (B)=0-30%)
c1csc(-c2ccc(-c3ccc(CNC45CC6CC(CC(C6)C4)C5)s3)s2)c1 [Example 157a, N-([2,2′:5′,2″-terthiophen]-5-ylmethyl)adamantan-1-amine]	–	–	B (key: (A)=31-95%; (B)=0-30%)	B (key: (A)=31-95%; (B)=0-30%)
Cc1ccc(CNC23CC4CC(CC(C4)C2)C3)s1 [Example 78a, N-((5-methylthiophen-2-yl)methyl)adamantan-1-amine]	–	–	A (key: (A)=31-95%; (B)=0-30%)	A (key: (A)=31-95%; (B)=0-30%)
c1coc(-c2ncc(CNC34CC5CC(CC(C5)C3)C4)cn2)c1 [Example 62a, N-((2-(furan-2-yl)pyrimidin-5-yl)methyl)adamantan-1-amine]	–	–	B (key: (A)=31-95%; (B)=0-30%)	A (key: (A)=31-95%; (B)=0-30%)
